Assay results: patent publication US11149017B2, “Solid state forms of apalutamide” (WATSON LABORATORIES INC., priority 2016, dated 2021)

Experiments:
[1] = Solubility Study (aqueous buffers, dissolution apparatus, LC analysis); type: physicochemical; details: compared to other crystalline forms of Apalutamide, e.g. crystalline form B
Protocol: Solubility of Apalutamide was checked using Dissolution apparatus (Lab India D8000) at 37 deg.
Buffers pH. 1.2, 4.5 and 6.8 were prepared as per the USP 36 Solutions/Buffer Solutions 1209.
About 500 mg of Apalutamide were added to the 100 mL buffer (pH 1.2, 4.5 and 6.8) in individual flasks to obtain saturated suspension and the suspension was stirred with 250 rpm for 24 hours. Suspension was observed though out stirring period. Samples were drawn at different intervals on completion of 15 mins, 1 hrs, 4 hrs and 24 hrs from each flask and filtered through 0.45μ PTFE filter; each solution was analyzed for Apalutamide content by liquid chromatography.

[2] = Bulk density and tapped (tap) density of powder; type: physicochemical; details: as compared to form A of Apalutamide
From the text: Bulk density as used in the present application is meant the ratio between mass (weight) and bulk volume for the powder blend. Tapped (tap) density is the maximum packing density of a powder (or blend of powders) achieved under the influence of well defined, externally applied forces. The minimum packed volume thus achieved depends on a number of factors including particle size distribution, true density, particle shape and cohesiveness due to surface forces including moisture. Therefore, the tap density of a material can be used to predict both its flow properties and its compressibility. These two parameters are important in the overall tableting process—which requires that loose powders be compacted into a durable solid form with the correct mechanical strength, porosity and dissolution characteristics—and in capsule filling performance.

| aqueous solubility [1] | bulk density [2] | tap density [2] | SMILES |
| --- | --- | --- | --- |
| higher aqueous solubility | – | – | CNC(=O)c1ccc(N2C(=S)N(c3cnc(C#N)c(C(F)(F)F)c3)C(=O)C23CCC3)cc1F [form T11, Apalutamide] |
| – | higher bulk density | higher tap density | CNC(=O)c1ccc(N2C(=S)N(c3cnc(C#N)c(C(F)(F)F)c3)C(=O)C23CCC3)cc1F [form T13, Apalutamide] |
